From patent publication US20100222269A1, “IMPROVED DERIVATIVES OF AMYLIN” (priority 2007, published 2010)
Starred links: 1 amine or outer side, 2 acyl side, 3 side chain; linkers in the order of their positions; H or OH if unused. Positions of bridges follow the written chain, without caps; N, C: chain ends. Residues, ends and D or L forms follow the SMILES beside them. *: point of attachment. C20 diacid = O=C(O)CCCCCCCCCCCCCCCCCCC(=O)*; γGlu = O=C(O)[C@H](CCC(=O)[*:2])N[*:1]

target: T1, Amylin 3(a) receptor (human calcitonin receptor (CTa) with RAMP-3) (Homo sapiens, UniProt O60896+P30988); experiment: Amylin luciferase assay (CRE-luciferase reporter in BHK Amylin 3(a)//CRE-luc cells); format: cell-based; conditions: BHK570 cells with human calcitonin receptor (CTa), RAMP-3 and CRE-luciferase reporter; 4 hours incubation; read-out: Potency luciferase assay
T1 construct: expressed in transfected cells; host or cells: BHK570 (baby hamster kidney) cells, stably transfected, with CRE-luciferase reporter
Outline: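 BHK570 cells stably expressing human calcitonin receptor (CTa), RAMP-3 and a CRE-luciferase reporter, about 20.000 cells/well, were exposed to standard or sample for 4 h at 37° C in phenol-red-free DMEM with 10% FBS and 10 mM Hepes pH 7,4. Luminescence was read after 30 min with LucLite at room temperature.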

T1 sequence (O60896 24-148): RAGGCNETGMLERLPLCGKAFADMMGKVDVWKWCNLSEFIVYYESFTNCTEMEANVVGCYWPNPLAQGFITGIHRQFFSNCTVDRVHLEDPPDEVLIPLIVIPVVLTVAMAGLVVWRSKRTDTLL
T1 sequence (P30988 25-474): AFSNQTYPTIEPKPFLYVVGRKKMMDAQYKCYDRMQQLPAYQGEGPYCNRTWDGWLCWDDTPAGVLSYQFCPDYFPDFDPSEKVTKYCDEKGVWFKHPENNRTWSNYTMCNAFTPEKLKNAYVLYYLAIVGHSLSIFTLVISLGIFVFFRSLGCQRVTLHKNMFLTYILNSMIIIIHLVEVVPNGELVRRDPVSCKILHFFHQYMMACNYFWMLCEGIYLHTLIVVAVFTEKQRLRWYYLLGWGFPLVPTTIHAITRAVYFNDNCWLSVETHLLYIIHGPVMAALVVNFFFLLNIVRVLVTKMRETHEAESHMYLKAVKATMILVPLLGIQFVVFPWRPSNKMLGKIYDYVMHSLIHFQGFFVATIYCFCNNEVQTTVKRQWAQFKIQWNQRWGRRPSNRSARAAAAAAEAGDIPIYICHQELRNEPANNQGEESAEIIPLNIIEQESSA

Row | EC50 [pM] | Compound
1 | 100 | CC[C@H](C)[C@H](NC(=O)[C@@H]1CCCN1C(=O)CNC(=O)[C@H](Cc1ccccc1)NC(=O)[C@H](CC(N)=O)NC(=O)[C@H](CC(N)=O)NC(=O)[C@H](CO)NC(=O)[C@H](CO)NC(=O)[C@H](Cc1c[nH]cn1)NC(=O)[C@@H](NC(=O)[C@H](CC(C)C)NC(=O)[C@H](Cc1ccccc1)NC(=O)[C@H](CC(N)=O)NC(=O)[C@H](C)NC(=O)[C@H](CC(C)C)NC(=O)[C@H](CCCNC(=N)N)NC(=O)[C@H](CCC(N)=O)NC(=O)[C@@H](NC(=O)[C@H](C)NC(=O)[C@@H]1CSSC[C@H](NC(=O)[C@H](CCCNC(=N)N)NC(=O)[C@H](CCC(=O)O)NC(=O)CCCCCCCCCCCCCCCCCCC(=O)O)C(=O)N[C@@H](CC(N)=O)C(=O)N[C@@H]([C@@H](C)O)C(=O)N[C@@H](C)C(=O)N[C@@H]([C@@H](C)O)C(=O)N1)[C@@H](C)O)C(C)C)C(=O)N[C@@H](CC(C)C)C(=O)N1CCC[C@H]1C(=O)N1CCC[C@H]1C(=O)N[C@H](C(=O)N[C@@H](CC(N)=O)C(=O)N[C@H](C(=O)NCC(=O)N[C@@H](CO)C(=O)N[C@@H](CC(N)=O)C(=O)N[C@H](C(=O)N[C@@H](Cc1ccc(O)cc1)C(N)=O)[C@@H](C)O)C(C)C)[C@@H](C)O [Example 46, N-alpha-(19-carboxynonadecanoyl)-Glu-[Arg1]-pramlintide (1-37)] ({C20 diacid}-ERCNTATCATQRLANFLVHSSNNFGPILPPTNVGSNTY-NH2; disulfide 3-8; C-terminus assumed)
2 | 100 | CC[C@H](C)[C@H](NC(=O)[C@@H]1CCCN1C(=O)CNC(=O)[C@H](Cc1ccccc1)NC(=O)[C@H](CC(N)=O)NC(=O)[C@H](CC(N)=O)NC(=O)[C@H](CO)NC(=O)[C@H](CO)NC(=O)[C@H](Cc1c[nH]cn1)NC(=O)[C@@H](NC(=O)[C@H](CC(C)C)NC(=O)[C@H](Cc1ccccc1)NC(=O)[C@H](CC(N)=O)NC(=O)[C@H](C)NC(=O)[C@H](CC(C)C)NC(=O)[C@H](CCCNC(=N)N)NC(=O)[C@H](CCC(N)=O)NC(=O)[C@@H](NC(=O)[C@H](C)NC(=O)[C@@H]1CSSC[C@H](NC(=O)[C@H](CCCNC(=N)N)NC(=O)[C@H](CCCNC(=N)N)NC(=O)CC[C@H](NC(=O)CCCCCCCCCCCCCCCCCCC(=O)O)C(=O)O)C(=O)N[C@@H](CC(N)=O)C(=O)N[C@@H]([C@@H](C)O)C(=O)N[C@@H](C)C(=O)N[C@@H]([C@@H](C)O)C(=O)N1)[C@@H](C)O)C(C)C)C(=O)N[C@@H](CC(C)C)C(=O)N1CCC[C@H]1C(=O)N1CCC[C@H]1C(=O)N[C@H](C(=O)N[C@@H](CC(N)=O)C(=O)N[C@H](C(=O)NCC(=O)N[C@@H](CO)C(=O)N[C@@H](CC(N)=O)C(=O)N[C@H](C(=O)N[C@@H](Cc1ccc(O)cc1)C(N)=O)[C@@H](C)O)C(C)C)[C@@H](C)O [Example 47, N-alpha-[(S)-4-carboxy-4-(19-carboxynonadecanoylamino)butyryl]-Arg-[Arg1]-pramlintide (1-37)] ({C20 diacid-γGlu}-RRCNTATCATQRLANFLVHSSNNFGPILPPTNVGSNTY-NH2; disulfide 3-8; C-terminus assumed)
3 | 100 | CC[C@H](C)[C@H](NC(=O)[C@@H]1CCCN1C(=O)CNC(=O)[C@H](Cc1ccccc1)NC(=O)[C@H](CC(N)=O)NC(=O)[C@H](CC(N)=O)NC(=O)[C@H](CO)NC(=O)[C@H](CO)NC(=O)[C@H](Cc1c[nH]cn1)NC(=O)[C@@H](NC(=O)[C@H](CC(C)C)NC(=O)[C@H](Cc1ccccc1)NC(=O)[C@H](CC(N)=O)NC(=O)[C@H](C)NC(=O)[C@H](CC(C)C)NC(=O)[C@H](CCCNC(=N)N)NC(=O)[C@H](CCC(N)=O)NC(=O)[C@@H](NC(=O)[C@H](C)NC(=O)[C@@H]1CSSC[C@H](NC(=O)[C@H](CCCCN)NC(=O)[C@H](CCCCN)NC(=O)CC[C@H](NC(=O)CCCCCCCCCCCCCCCCCCC(=O)O)C(=O)O)C(=O)N[C@@H](CC(N)=O)C(=O)N[C@@H]([C@@H](C)O)C(=O)N[C@@H](C)C(=O)N[C@@H]([C@@H](C)O)C(=O)N1)[C@@H](C)O)C(C)C)C(=O)N[C@@H](CC(C)C)C(=O)N1CCC[C@H]1C(=O)N1CCC[C@H]1C(=O)N[C@H](C(=O)N[C@@H](CC(N)=O)C(=O)N[C@H](C(=O)NCC(=O)N[C@@H](CO)C(=O)N[C@@H](CC(N)=O)C(=O)N[C@H](C(=O)N[C@@H](Cc1ccc(O)cc1)C(N)=O)[C@@H](C)O)C(C)C)[C@@H](C)O [Example 48, N-alpha-[(S)-4-carboxy-4-(19-carboxynonadecanoylamino)butyryl]-Lys-pramlintide (1-37)] ({C20 diacid-γGlu}-KKCNTATCATQRLANFLVHSSNNFGPILPPTNVGSNTY-NH2; disulfide 3-8)
4 | 200 | CC[C@H](C)[C@H](NC(=O)[C@@H]1CCCN1C(=O)CNC(=O)[C@H](Cc1ccccc1)NC(=O)[C@H](CC(N)=O)NC(=O)[C@H](CC(N)=O)NC(=O)[C@H](CO)NC(=O)[C@H](CO)NC(=O)[C@H](Cc1c[nH]cn1)NC(=O)[C@@H](NC(=O)[C@H](CC(C)C)NC(=O)[C@H](Cc1ccccc1)NC(=O)[C@H](CC(N)=O)NC(=O)[C@H](C)NC(=O)[C@H](CC(C)C)NC(=O)[C@H](CCCNC(=N)N)NC(=O)[C@H](CCC(N)=O)NC(=O)[C@@H](NC(=O)[C@H](C)NC(=O)[C@@H]1CSSC[C@H](NC(=O)[C@H](CCCCN)NC(=O)[C@H](CCCNC(=N)N)NC(=O)CC[C@H](NC(=O)CCCCCCCCCCCCCCCCCCC(=O)O)C(=O)O)C(=O)N[C@@H](CC(N)=O)C(=O)N[C@@H]([C@@H](C)O)C(=O)N[C@@H](C)C(=O)N[C@@H]([C@@H](C)O)C(=O)N1)[C@@H](C)O)C(C)C)C(=O)N[C@@H](CC(C)C)C(=O)N1CCC[C@H]1C(=O)N1CCC[C@H]1C(=O)N[C@H](C(=O)N[C@@H](CC(N)=O)C(=O)N[C@H](C(=O)NCC(=O)N[C@@H](CO)C(=O)N[C@@H](CC(N)=O)C(=O)N[C@H](C(=O)N[C@@H](Cc1ccc(O)cc1)C(N)=O)[C@@H](C)O)C(C)C)[C@@H](C)O [Example 49, N-alpha-[(S)-4-carboxy-4-(19-carboxynonadecanoylamino)butyryl]-Arg-pramlintide (1-37)] ({C20 diacid-γGlu}-RKCNTATCATQRLANFLVHSSNNFGPILPPTNVGSNTY-NH2; disulfide 3-8; C-terminus assumed)
5 | 80 | CC[C@H](C)[C@H](NC(=O)[C@@H]1CCCN1C(=O)CNC(=O)[C@H](Cc1ccccc1)NC(=O)[C@H](CC(N)=O)NC(=O)[C@H](CC(N)=O)NC(=O)[C@H](CO)NC(=O)[C@H](CO)NC(=O)[C@H](Cc1c[nH]cn1)NC(=O)[C@@H](NC(=O)[C@H](CC(C)C)NC(=O)[C@H](Cc1ccccc1)NC(=O)[C@H](CC(N)=O)NC(=O)[C@H](C)NC(=O)[C@H](CC(C)C)NC(=O)[C@H](CCCNC(=N)N)NC(=O)[C@H](CCC(N)=O)NC(=O)[C@@H](NC(=O)[C@H](C)NC(=O)[C@@H]1CSSC[C@H](NC(=O)[C@H](CCCCN)NC(=O)[C@H](CCCNC(=N)N)NC(=O)[C@H](CCCCN)NC(=O)[C@H](CCC(=O)O)NC(=O)CCCCCCCCCCCCCCCCCCC(=O)O)C(=O)N[C@@H](CC(N)=O)C(=O)N[C@@H]([C@@H](C)O)C(=O)N[C@@H](C)C(=O)N[C@@H]([C@@H](C)O)C(=O)N1)[C@@H](C)O)C(C)C)C(=O)N[C@@H](CC(C)C)C(=O)N1CCC[C@H]1C(=O)N1CCC[C@H]1C(=O)N[C@H](C(=O)N[C@@H](CC(N)=O)C(=O)N[C@H](C(=O)NCC(=O)N[C@@H](CO)C(=O)N[C@@H](CC(N)=O)C(=O)N[C@H](C(=O)N[C@@H](Cc1ccc(O)cc1)C(N)=O)[C@@H](C)O)C(C)C)[C@@H](C)O [Example 50, N-alpha-(19-carboxynonadecanoyl)-Glu-Lys-Arg-pramlintide (1-37)] ({C20 diacid}-EKRKCNTATCATQRLANFLVHSSNNFGPILPPTNVGSNTY-NH2; disulfide 5-10)
